Assay results as given in US20050250801A1, “Method of treating cancer with azaspirane compositions” (priority 2003, published 2005).
Read-outs that look alike come from different tables or passages of the source.

Tests used:
Format in all cases: cell-based
CaCo-2 cells = experiment: Inhibition of CaCo-2 colon carcinoma cell proliferation (WST-1, Example 1); details: Homo sapiens, 24 hours incubation
Experimental: The effect of N,N,-diethyl-8,8-dipropyl-2-azaspiro[4,5]decane-2-propanamine dimaleate (Compound 1) on proliferation of human colon carcinoma cells T84 and CaCo-2 was evaluated in the following manner. Cell proliferation was measured by WST-1 dye conversion to Formazan assay using the proliferation kit from BioVision, CA. The procedure used was essentially as described in the manufacture's instructions. Briefly, cells were grown for 7 days until they formed semi-confluent monolayers. On day 7, cells were trypsinized and resuspended in 96-well plates at a concentration of approximately 40,000 cells/well and allowed to grow for 24 hours at 37° C.
Subsequently, fresh media containing increasing concentrations of Compound 1, as indicated in the FIG. 1, were added and assay plates were further incubated for an additional period of 24 hours. A solution of 5 μl of WST-1 dye per well was added and plates were read after 4 hours at 440 and 600 nm using an ELISA plate reader. The absorbance at 440 minus that at 600 nm is directly proportion to the number of proliferating cells. All samples were measured in triplicate and results were expressed as an average of three determinations.

RPMI-8226 = experiment: NCI in vitro SRB assay, Leukemia; details: for CC50 / GI50: Homo sapiens
Experimental: (§1) An in vitro assay which tested the ability of N,N,-diethyl-8,8-dipropyl-2-azaspiro[4,5]decane-2-propanamine dimaleate (Compound 1) to inhibit the growth of known cancer cell lines was performed by the National Cancer Institute in accordance with standard procedures. See: Lin, Z. X., Hoult, J. R., and Raman, A. Sulphorhodamine B assay for measuring proliferation of a pigmented melanocyte cell line and its application to the evaluation of crude drugs used in the treatment of vitiligo. J Ethnopharmacol. 66: 141-150, 1999. Briefly, selected tumor cell lines were cultured in media containing five different concentrations of Compound 1. After 48 hours of continuous exposure, a sulforhodamine B (SRB) assay was used to estimate cell viability or growth via optical measurements.
(§2) From the measurements, the following values were determined: 1) the concentration of Compound 1 at which a tumor cell growth inhibition of 50% (relative to control) occurs (GI50), 2) the concentration of Compound 1 at which no growth occurs (total growth inhibition, TGI), and 3) the concentration of Compound 1 at which the […] (LC 50). […] FIG. 6 illustrates, graphically, tumor cell growth as a function of Compound 1 concentration of the scanned tumor cell lines.

CCRF-CEM = experiment: NCI in vitro SRB assay, Leukemia; details: for GI50 / CC50: Homo sapiens
Experimental: as §1, §2

SF-295 = experiment: NCI in vitro SRB assay, CNS Cancer; details: for CC50 / GI50: Homo sapiens
Experimental: as §1, §2

SF-539 = experiment: NCI in vitro SRB assay, CNS Cancer; details: for GI50: Homo sapiens
Experimental: as §1, §2

SF-268 = experiment: NCI in vitro SRB assay, CNS Cancer; details: for CC50 / GI50: Homo sapiens
Experimental: as §1, §2

U251 = experiment: NCI in vitro SRB assay, CNS Cancer; details: for CC50 / GI50: Homo sapiens; for GI50: U-251
Experimental: as §1, §2

[1] = RPMI-8226, Log10 conc -4.0 Moles/L
[2] = RPMI-8226, Log10 conc -5.0 Moles/L
[3] = RPMI-8226, Log10 conc -6.0 Moles/L
[4] = RPMI-8226, Log10 conc -7.0 Moles/L
[5] = RPMI-8226, Log10 conc -8.0 Moles/L
[6] = read-out: Log10 GI50 (converted)
[7] = SF-295, Log10 conc -4.0 Moles/L
[8] = SF-295, Log10 conc -5.0 Moles/L
[9] = SF-295, Log10 conc -6.0 Moles/L
[10] = SF-295, Log10 conc -7.0 Moles/L
[11] = SF-295, Log10 conc -8.0 Moles/L
[12] = SF-268, Log10 conc -4.0 Moles/L
[13] = SF-268, Log10 conc -5.0 Moles/L
[14] = SF-268, Log10 conc -6.0 Moles/L
[15] = SF-268, Log10 conc -7.0 Moles/L
[16] = SF-268, Log10 conc -8.0 Moles/L

CCCC1(CCC)CCC2(CCN(CCCN(CC)CC)C2)CC1.O=C(O)/C=C\C(=O)O.O=C(O)/C=C\C(=O)O [Compound 1, N,N,-diethyl-8,8-dipropyl-2-azaspiro[4,5]decane-2-propanamine dimaleate]
IC50 (CaCo-2 cells): 0.625 to 1.25 µM | CC50 (RPMI-8226; RPMI-8226, read-out: LC50): > 100 µM | CC50 (RPMI-8226; RPMI-8226, read-out: Log10 LC50 (converted)): > 100 µM | GI50 (RPMI-8226; RPMI-8226, read-out: GI50): 0.283 µM | GI50 (RPMI-8226; RPMI-8226, read-out: Log10 GI50 (converted)): 0.282 µM | Log10 TGI (RPMI-8226; RPMI-8226): −4.53 | TGI (RPMI-8226; RPMI-8226): 29.8 µM | Mean Optical Densities (RPMI-8226; [1]): 0.185 | Percent Growth (RPMI-8226; [1]): −3% | Mean Optical Densities (RPMI-8226; [2]): 0.218 | Percent Growth (RPMI-8226; [2]): 3% | Mean Optical Densities (RPMI-8226; [3]): 0.371 | Percent Growth (RPMI-8226; [3]): 21% | Mean Optical Densities (RPMI-8226; [4]): 0.843 | Percent Growth (RPMI-8226; [4]): 74% | Mean Optical Densities (RPMI-8226; [5]): 0.918 | Percent Growth (RPMI-8226; [5]): 83% | Log10 TGI (CCRF-CEM): >−4.00 | TGI (CCRF-CEM): >100 µM | GI50 (CCRF-CEM; read-out: GI50): 1.09 µM | CC50 (CCRF-CEM; read-out: LC50): > 100 µM | GI50 (CCRF-CEM; [6]): 1.1 µM | CC50 (CCRF-CEM; read-out: Log10 LC50 (converted)): > 100 µM | Mean Optical Densities (CCRF-CEM; Log10 conc -4.0 Moles/L): 0.115 | Percent Growth (CCRF-CEM; Log10 conc -4.0 Moles/L): 6% | Mean Optical Densities (CCRF-CEM; Log10 conc -5.0 Moles/L): 0.158 | Percent Growth (CCRF-CEM; Log10 conc -5.0 Moles/L): 13% | Mean Optical Densities (CCRF-CEM; Log10 conc -6.0 Moles/L): 0.409 | Percent Growth (CCRF-CEM; Log10 conc -6.0 Moles/L): 51% | Mean Optical Densities (CCRF-CEM; Log10 conc -7.0 Moles/L): 0.597 | Percent Growth (CCRF-CEM; Log10 conc -7.0 Moles/L): 81% | Mean Optical Densities (CCRF-CEM; Log10 conc -8.0 Moles/L): 0.611 | Percent Growth (CCRF-CEM; Log10 conc -8.0 Moles/L): 83% | CC50 (SF-295; SF-295, read-out: LC50): 8.21 µM | CC50 (SF-295; SF-295, read-out: Log10 LC50 (converted)): 8.13 µM | GI50 (SF-295; SF-295, read-out: GI50): 1.93 µM | GI50 (SF-295; SF-295, read-out: Log10 GI50 (converted)): 1.95 µM | Log10 TGI (SF-295; SF-295): −5.40 | TGI (SF-295; SF-295): 3.98 µM | Mean Optical Densities (SF-295; [7]): 0.239 | Percent Growth (SF-295; [7]): −57% | Mean Optical Densities (SF-295; [8]): 0.202 | Percent Growth (SF-295; [8]): −64% | Mean Optical Densities (SF-295; [9]): 1.520 | Percent Growth (SF-295; [9]): 96% | Mean Optical Densities (SF-295; [10]): 1.653 | Percent Growth (SF-295; [10]): 109% | Mean Optical Densities (SF-295; [11]): 1.614 | Percent Growth (SF-295; [11]): 105% | Log10 TGI (SF-539): −5.50 | TGI (SF-539): 3.13 µM | GI50 (SF-539; read-out: GI50): 1.57 µM | GI50 (SF-539; [6]): 1.58 µM | Mean Optical Densities (SF-539; Log10 conc -4.0 Moles/L): 0.033 | Percent Growth (SF-539; Log10 conc -4.0 Moles/L): −89% | Mean Optical Densities (SF-539; Log10 conc -5.0 Moles/L): 0.050 | Percent Growth (SF-539; Log10 conc -5.0 Moles/L): −84% | Mean Optical Densities (SF-539; Log10 conc -6.0 Moles/L): 0.559 | Percent Growth (SF-539; Log10 conc -6.0 Moles/L): 83% | Mean Optical Densities (SF-539; Log10 conc -7.0 Moles/L): 0.612 | Percent Growth (SF-539; Log10 conc -7.0 Moles/L): 100% | Mean Optical Densities (SF-539; Log10 conc -8.0 Moles/L): 0.591 | Percent Growth (SF-539; Log10 conc -8.0 Moles/L): 93% | CC50 (SF-268; SF-268, read-out: LC50): 5.8 µM | CC50 (SF-268; SF-268, read-out: Log10 LC50 (converted)): 5.75 µM | GI50 (SF-268; SF-268, read-out: GI50): 1.43 µM | GI50 (SF-268; SF-268, read-out: Log10 GI50 (converted)): 1.45 µM | Log10 TGI (SF-268; SF-268): −5.54 | TGI (SF-268; SF-268): 2.88 µM | Mean Optical Densities (SF-268; [12]): 0.058 | Percent Growth (SF-268; [12]): −80% | Mean Optical Densities (SF-268; [13]): 0.033 | Percent Growth (SF-268; [13]): −89% | Mean Optical Densities (SF-268; [14]): 1.004 | Percent Growth (SF-268; [14]): 75% | Mean Optical Densities (SF-268; [15]): 1.181 | Percent Growth (SF-268; [15]): 94% | Mean Optical Densities (SF-268; [16]): 1.193 | Percent Growth (SF-268; [16]): 95% | CC50 (U251; U-251, read-out: LC50): 4.69 µM | CC50 (U251; U-251, read-out: Log10 LC50 (converted)): 4.68 µM | GI50 (U251; U251, read-out: GI50): 1.03 µM | GI50 (U251; U251, read-out: Log10 GI50 (converted)): 1.02 µM | Log10 TGI (U251; U251): −5.66 | TGI (U251; U251): 2.2 µM | Mean Optical Densities (U251; U251, Log10 conc -4.0 Moles/L): −0.042 | Percent Growth (U251; U251, Log10 conc -4.0 Moles/L): −100% | Mean Optical Densities (U251; U251, Log10 conc -5.0 Moles/L): −0.049 | Percent Growth (U251; U251, Log10 conc -5.0 Moles/L): −100% | Mean Optical Densities (U251; U251, Log10 conc -6.0 Moles/L): 0.602 | Percent Growth (U251; U251, Log10 conc -6.0 Moles/L): 52% | Mean Optical Densities (U251; U251, Log10 conc -7.0 Moles/L): 0.864 | Percent Growth (U251; U251, Log10 conc -7.0 Moles/L): 88% | Mean Optical Densities (U251; U251, Log10 conc -8.0 Moles/L): 0.885 | Percent Growth (U251; U251, Log10 conc -8.0 Moles/L): 90%
